According to article PMC12951430, “Modular Vinyl Phosphonamidates for Cysteine-Directed Protein Targeting” (Journal of the American Chemical Society, 2026):
Where “and” joins values, the source holds several entries; their conditions need not be identical. Equal values may be shown once. Entries after “also recorded” stand apart in the source; their conditions may differ. Read-outs that look alike come from different tables or passages of the source.

Tests used:
[1] = tested on: RAMOS cell lysate; assay: Gel-based ABPP of alkyne probes in RAMOS cell lysate; set-up: species or system human; conditions: RAMOS cell lysate 1 mg/mL, 10 and 100 μM, 1 h
Description: Greater reactivity yields a higher isoDTB ratio. Ratios ≥ 4 (dashed line) are considered liganded.
Nonetheless, since the formation of the glutathione conjugate was clearly notable, we wanted to investigate the reactivity of 1a with a more diverse set of thiols. Therefore, we examined all three electrophilic groups for their ability to label cysteines in whole-cell lysates. First, alkyne-functionalized reagents (1b–3b, for structures, see Scheme S1) were synthesized to allow for gel-based activity-based protein profiling (ABPP). […] Since all compounds share the same scaffold and differ only by their reactive functional group, we anticipate that any differences in labeling intensity should primarily stem from differences in electrophilicity. […] CAPA reporter cells were prepared by transiently transfecting HEK293T with a plasmid enabling the cytoplasmic expression of the Halotag protein, and concentration-dependent cell permeability was assessed. […]
Cells were harvested by centrifugation, washed trice with ice cold PBS (Ph 7.4) and stored at -70°C until lysis. […] Lysates were cleared by centrifugation (15’000 rcf) and the proteinconcentration was determined via BCA assay (Pierce BCA Protein Assay Kit, Thermo Fisher Scientific) according to the vendors instructions. […]

[2] = target: wild-type EGFR (Homo sapiens, UniProt P00533); assay: biochemical; conditions: in vitro kinase assay
[3] = target: T1, wt EGFR (Homo sapiens, UniProt P00533); assay: biochemical; assay type: biochemical
T1 construct: purchased Sino Biological

[4] = target: EGFR in A431 cells (Homo sapiens, UniProt P00533); assay: Gel-based ABPP of EGFR probes in A431 cells; conditions: for in-cell EGFR labeling, competition with excess Afatinib: pretreatment Afatinib 5 μM; for target selectivity in time-course labeling: 1 µM, up to 6 h
Protocol: With this probe in hand, we treated wild-type EGFR overexpressing A431 cells at a probe concentration of 1 μM for 1 h at 37 °C, followed by lysis and fluorescent labeling via CuAAC.
For EGFR -probes, A431 -cells were seeded at 60’000 cells/well in a 6-well plate (Greiner Bio-One) and incubated until 80 -100% confluencey. Before treatment , cells were washed twice with PBS. Cells were incubated with the indicated compound concentration (final conc. of 1% DMSO in RPMI -FCS ) at 37 °C.
After the incubati on, cells were washed twice with ice cold PBS and lysed in ice -cold RIPA -buffer containing cOmplete TM protease inhibitor (Roche), 50 mM iodo acetamide (I1149, Sigma Aldrich) and
Following a 10 min incubation at 37 °C lysat es were transferred
TBTA, 0.5 mM TCEP, 0.05 mM fluorescein-N3) in a shaker (800 rpm, 37 °C) for 45 minutes. Afterwards, proteins were precipitated with the 4-fold volume of acetonitrile and cetrifuged (14’00 rcf, 5 min). The solvent was removed and precipitates were resuspended in 80% EtOH followed by another round of centrifugation (10’000 rcf, 5 min). The pellets were aspirated and left to dry on air for 5-10 minutes.
and bands were quantified in ImageLab 6.1.

[5] = tested on: A431 cells; assay: Proteomic pulldown with EGFR probes in A431 cells (LFQ); assay type: cell-based, human; conditions: for # Labelled Proteins (total number of significantly enriched proteins) / off-targets enriched: 10 μM probe
Protocol: To gain a more detailed understanding of which proteins are labeled by the corresponding probe, we performed a proteomic pulldown experiment. […] . […] Additionally, we also wanted to investigate proteomic engagement under more extreme conditions, using a 10 μM probe concentration. […] Even though both probes enriched a large portion of proteins, EGFR was still among the most prominent hits for the phosphonamidate probe and only to a lesser extent for 5 (Figure S11). Overall, we observed a certain degree of complementarity between the off-targets obtained from the corresponding probes (Figures j and S12). […] Most prominently, selenoprotein SELENOT and solute carrier protein SLC25A32 were only enriched by phosphonamidate probe 7. On the other hand, several proteins like the cysteine proteases ATG4B, CTSB, and BOLA2 were exclusively enriched by DMAC probe 5.
Figure S 10: Volcano blots obtained from label free quantification of the proteins from streptavidin pulldowns performed with 1 µM probe 5 or 7 (in comparison to the DMSO treated sample). Proteins were identified and quantified and blotted as described in 4.8: Variance stabilization and Perseus-type […]
At the tested concentration, both probes solely enrich
EGFR. Data was obtained from 4 independent replicates.
Figure S 11: Volcano blots obtained from label free quantification of the proteins from streptavidin pulldowns performed with 10 µM probe 5 or 7 (in comparison to the DMSO treated sample). Proteins […]
imputation were enabled. Proteins surpassing a log 2 fold-change of 2.5 and a -log10 adjusted p-value […]
proteins can be found in Supplementary Table 1. Data was obtained from 4 independent replicates. […]
4.8 In-cell protein labeling and s ample preparation for proteomic pull-down Cells were cultured, treated and lysed as described in 4.4. Lysates (approx. 200 μg of protein each) […]
Afterwards, the samples we re processed according to a procedure published by Becker et al. 10: A total of 50 μl of mixed hydrophobic and hydrophilic carboxylate -coated magnetic beads (1:1, prewashed with PBS; Seramag™, Cytavia) was added to the click reaction mixture followed by 600 μl of absolute ethanol to precipitate the proteins. Beads were washed thrice with of 80% ethanol and proteins were eluted by two sequential washes of 0.2% SDS in PBS. The eluted proteins were directly transferred onto 30 μl of streptavidin-coated magnetic beads (prewashed with 0.2% SDS in PBS; New England Biolabs) and incubated on a shaker for 1 h at r.t. Streptavidin-beads were washed thrice with 8 M urea, PBS pH 7.4 and MilliQ water. Washed beads were resuspended in 100 mM ABC buffer, followed by […]
trypsinized overnight at 37 °C (1.5 µg/sample, Promega). The supernatant was removed, acidified to 1% TFA, centrifuged at 10‘000 rcf for 5 minutes and stored at -20 °C until measurement. Before MS/MS analysis a quality-control run was conducted on a Waters XEVO G2-XS QTof instrument to ensure […]
Samples were diluted based on the QC-runs to ensure equal loading. LC-MS/MS analysis was performed using an UltiMate 3000 RSLC nano LC system coupled on -line to an Orbitrap Fusion mass spectrometer (Thermo Fisher Scientific). For sample loading a PepMap C -18 trap-column (Thermo Fischer Scientific) of 0.075 mm ID x 50 mm length, 3 μm particle size and 100 Å pore size was used. The loading mobile phase A contained 1% acetonitrile and 0.05% TFA acid in water, and mobile phase B 0.05% TFA acid in acetonitrile. Reversed-phase separation was performed using a 50 cm analytical column (in-house packed with Poroshell 120 EC-C18, 2.7μm, Agilent Technologies) with mobile phase A contained 0.1% formic acid in water, and mobile phase B 0.1% formic acid in acetonitrile using a 93 […]
ions with charge states 2-4 were isolated with a mass selecting quadrupole (isolation window 1.6 m/z)

[6] = tested on: RAMOS cells; assay: Off-target reactivity in EGFR-negative RAMOS cells (gel-based); conditions: up to 10 μM, 1 h, 1 μM time course
Protocol: probe 5 in EGFR-negative RAMOS-cells. Cells (3x10^6/ml) were treated with the indicated probe-
concentration for 1 h @ 37 °C in RPMI –FCS. After the treatment, cells were processed according to the
Data is representative of three independent experiments. a) Fluorescent gel
of RAMOS-cells treated with the indicated probe-concentration. b) Relative fluorescent intensity of
three independent experiments c) Fluorescent gel of RAMOS-cells treated 1 µM probe 5 or 7 for the
indicated time. b) Relative fluorescent intensity of three independent experiments (quantitative results
were normalized to the most intense band in each replicate)
For BTK-probes, RAMOS-cells were seeded at 3x10^6 cells/ml (RMPI w/o FCS) and incubated with the indicated compound concentration (final conc. of 1% DM SO) at 37 °C. After the incubation, cells were harvested by centrifugation, washed twice with ice cold PBS and lysed in ice -cold RIPA-buffer containing cOmpleteTM protease inhibitor (Roche), 50 mM iodo acetamide (I1149, Sigma Aldrich) and
Following a 10 min incubation at 37 °C lysates were f urther processed as described above.

[7] = target: T2, BTK in RAMOS cells (Homo sapiens, UniProt Q06187); assay: Gel-based ABPP of BTK probes in RAMOS cells; assay type: cell-based; conditions: 250 nM, 1 h, 37 °C
T2 construct: we performed a gel-based ABPP experiment using RAMOS cells; host or cells: RAMOS
Description: Motivated by these promising results, we wanted to extend the scope toward a different class of kinase inhibitors. […] Inspired by these findings, we synthesized a series of VPA probes based on the pyrazolo[3,4-d]-pyrimidine scaffold (8–11, Figure a), each harboring a different aromatic linker. To compare their reactivity and selectivity for BTK, we performed a gel-based ABPP experiment using RAMOS cells. […] In contrast, for all four PA probes, only one intense band was obtained at the same height as BTK. […] Analogously to Afatinib-derived probe 4a, we wanted to investigate whether one stereoisomer might show preferential binding.
(b) Comparison of the in-cell reactivity profiles of BTK probes 8–12 in RAMOS cells (250 nM, 1 h, 37 °C) analyzed by gel-based ABPP. […]
Fluorescence was monitored over 4 h at 30 °C every 60 seconds (λex = 360 nm and λem = 492 nm).
Background‑subtracted fluorescence intensity (RFU) was plotted against time (s), and data were fitted to a single‑phase association model: […]
4.7 In-cell protein labeling and in -gel fluorescence analysis […]
Afterwards, the precipitate was redissolved in 40 µl 8 M urea (100 mM Tris, pH 8), 8 µl Laemmli buffer were added and the samples were denatured at 95 °C for 5 minutes. Proteins were seperated via SDS - PAGE (12% or 4-20% acrylamide gels) and analyzed on a Gel Doc XR+ (Bio-Rad, USA). […]

EGFR in A431 cells, sequence (P00533 25-1210): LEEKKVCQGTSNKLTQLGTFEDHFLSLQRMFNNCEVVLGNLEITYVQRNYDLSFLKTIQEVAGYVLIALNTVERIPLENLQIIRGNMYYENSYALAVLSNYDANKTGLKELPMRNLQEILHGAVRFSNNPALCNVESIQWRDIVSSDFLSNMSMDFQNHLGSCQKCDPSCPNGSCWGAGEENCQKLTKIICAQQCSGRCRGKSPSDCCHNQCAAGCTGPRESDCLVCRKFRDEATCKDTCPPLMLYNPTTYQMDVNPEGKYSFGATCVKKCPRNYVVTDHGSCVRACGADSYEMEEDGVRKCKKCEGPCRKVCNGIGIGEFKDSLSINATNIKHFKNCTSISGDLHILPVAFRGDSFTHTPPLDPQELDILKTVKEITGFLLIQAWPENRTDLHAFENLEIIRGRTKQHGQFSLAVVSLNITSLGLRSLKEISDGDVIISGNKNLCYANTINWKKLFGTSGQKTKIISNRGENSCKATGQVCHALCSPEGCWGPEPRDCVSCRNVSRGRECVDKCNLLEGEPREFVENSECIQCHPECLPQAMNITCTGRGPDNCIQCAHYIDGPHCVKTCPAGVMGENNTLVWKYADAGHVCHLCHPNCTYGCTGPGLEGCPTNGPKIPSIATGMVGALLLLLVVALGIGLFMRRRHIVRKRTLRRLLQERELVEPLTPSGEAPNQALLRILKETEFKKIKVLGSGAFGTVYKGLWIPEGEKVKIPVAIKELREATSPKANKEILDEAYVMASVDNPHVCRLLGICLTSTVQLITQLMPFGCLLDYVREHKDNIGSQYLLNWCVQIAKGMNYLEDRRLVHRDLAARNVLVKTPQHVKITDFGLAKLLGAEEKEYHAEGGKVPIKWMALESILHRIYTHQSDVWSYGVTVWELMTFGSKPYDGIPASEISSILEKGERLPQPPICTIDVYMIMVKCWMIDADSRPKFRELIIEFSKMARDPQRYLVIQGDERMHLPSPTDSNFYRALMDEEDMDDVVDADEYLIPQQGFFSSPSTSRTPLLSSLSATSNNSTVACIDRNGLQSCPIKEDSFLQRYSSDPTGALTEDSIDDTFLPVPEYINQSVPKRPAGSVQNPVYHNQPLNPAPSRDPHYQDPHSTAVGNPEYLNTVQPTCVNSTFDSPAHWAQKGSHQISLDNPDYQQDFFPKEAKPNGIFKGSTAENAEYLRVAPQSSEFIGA
T1 sequence (P00533 25-1210): as above
wild-type EGFR, sequence (P00533 25-1210): as above
T2 sequence (Q06187 whole entry): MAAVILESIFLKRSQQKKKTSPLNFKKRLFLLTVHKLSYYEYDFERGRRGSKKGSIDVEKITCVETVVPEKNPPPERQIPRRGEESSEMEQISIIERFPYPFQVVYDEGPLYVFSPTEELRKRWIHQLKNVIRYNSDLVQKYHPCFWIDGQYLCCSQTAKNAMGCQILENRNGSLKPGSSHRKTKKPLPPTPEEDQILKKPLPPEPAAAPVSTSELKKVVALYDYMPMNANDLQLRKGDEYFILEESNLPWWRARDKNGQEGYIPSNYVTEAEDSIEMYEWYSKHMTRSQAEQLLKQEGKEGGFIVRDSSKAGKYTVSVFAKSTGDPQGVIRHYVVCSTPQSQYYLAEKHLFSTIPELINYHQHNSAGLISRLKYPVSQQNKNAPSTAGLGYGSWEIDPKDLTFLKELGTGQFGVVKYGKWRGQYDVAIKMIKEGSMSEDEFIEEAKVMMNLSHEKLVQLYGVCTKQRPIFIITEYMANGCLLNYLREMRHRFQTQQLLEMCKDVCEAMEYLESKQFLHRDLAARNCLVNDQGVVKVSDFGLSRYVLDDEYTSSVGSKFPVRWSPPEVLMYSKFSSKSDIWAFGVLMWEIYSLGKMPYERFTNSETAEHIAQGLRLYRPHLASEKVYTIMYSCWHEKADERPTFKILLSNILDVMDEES

Compound	in-cell EGFR labeling, competition with excess Afatinib ([4]; 1 h 37 °C)	# Labelled Proteins (total number of significantly enriched proteins) ([5]; A431 cells)	off-targets enriched ([5]; A431 cells)	target selectivity in time-course labeling [4]	off-target labeling in EGFR-negative cells [6]	further results
C#Cc1ccc(NC(=O)CCl)cc1 [3b]	–	–	–	–	–	fluorescent labeling signal [1]: most intense fluorescent signal
C=CP(=O)(Nc1cc2c(Nc3ccc(F)c(Cl)c3)ncnc2cc1O[C@H]1CCOC1)OCC (stereo partly shown) [4a]	–	–	–	–	–	IC50 [2]: 680 pM and 670 pM; Ki ([3]; 4a 2–50 nM): 2430 pM; k inact ([3]; 4a 2–50 nM): 0.24 × 10^–3 s^–1; k inact/K I ratio ([3]; direct comparison): 97 × 10^3 M^–1 s^–1
C#CCCOP(=O)(C=C)Nc1cc2c(Nc3ccc(F)c(Cl)c3)ncnc2cc1O[C@H]1CCOC1 (stereo partly shown) [4c]	selective covalent engagement of EGFR	–	–	–	–	–
C#CCOc1cc2ncnc(Nc3ccc(F)c(Cl)c3)c2cc1NC(=O)/C=C/CN(C)C [compound 5, reference compound]	–	327	118	significantly higher off-target labeling	significant fluorescent labeling of off-targets	significantly enriched proteins ([5]; A431 cells, 1 μM probe, 2 h 37 °C, log2-fold change >2.5, adjusted p <0.01): solely enrich
C#CCOc1cc2ncnc(Nc3ccc(F)c(Cl)c3)c2cc1NP(=O)(C=C)OCC (stereo not shown) [compound 7]	EGFR-selective labeling	119	327	did not decrease	almost no labeling	significantly enriched proteins [5]: solely enrich; also recorded: EGFR is the only protein significantly enriched; lowest concentration with detectable labeling signal ([4]; 1 h 37 °C): ≤ 5 nM
C#CCCOP(=O)(C=C)Nc1ccccc1Cn1nc(-c2ccc(Oc3ccccc3)cc2)c2c(N)ncnc21 (stereo not shown) [compound 9]	–	–	–	–	–	in-cell reactivity profile (gel bands) [7]: most intense labeling
